The term IC50 denotes the concentration needed to halve the response being measured.

The structures appear in SMILES notation. Bounds are passed on as bounds.

Experiment [1] has as its system BRD pathogens, M. haemolytica and P. multocida. Briefly: MIC screening panel of BRD pathogens (antibacterial / non-antibacterial). To be noted: read-out: antibacterial / non-antibacterial (MIC for the BRD pathogens).
For another experiment, the system named is IL-6. Briefly: LPS-stimulated whole bovine blood assay, MSD cytokine detection. In kind it is cell-based. To be noted: Bos taurus, LPS-stimulated bovine whole blood; read-out: IL-6 (IC50 μM). From the text:
In order to correlate RNA sequencing data to cytokine changes the whole blood assay was utilized. […] The enhancement result represents an overall stimulation of cytokine levels due to cellular stress or potential toxicity with increasing concentrations of the compound, representing a typical bell shape response curve for immunomodulatory activity.

The test system of another experiment is IL-1β. The description is as above. To be noted: overstimulation of IL-1β, LPS-stimulated bovine whole blood. It is filed as cell-based.
The test system of another experiment is TNF-α. The description is as above. It is filed as cell-based. To be noted: Bos taurus, LPS-stimulated bovine whole blood; read-out: TNF-α (IC50 μM).

Consider `CCCNC[C@]1(O)[C@H](C)O[C@@H](O[C@H]2[C@H](C)[C@@H](O[C@@H]3O[C@H](C)C[C@H](N(Cc4nccs4)C(=O)N(C)c4ccccc4)[C@H]3O)[C@](C)(O)C[C@@H](C)CN[C@H](C)[C@@H](O)[C@](C)(O)[C@@H](CC)OC(=O)[C@@H]2C)C[C@@]1(C)OC` [Example H-64, 1-((2S,3R,4S,6R)-2-(((2R,3S,4R,5R,8R,10R,11R,12S,13S,14R)-2-ethyl-3,4,10-trihydroxy-13-(((2R,4R,5S,6S)-5-hydroxy-4-methoxy-4,6-dimethyl-5-((propylamino)methyl)tetrahydro-2H-pyran-2-yl)oxy)-3,5,8,10,12,14-hexamethyl-15-oxo-1-oxa-6-azacyclopentadecan-11-yl)oxy)-3-hydroxy-6-methyltetrahydro-2H-pyran-4-yl)-3-methyl-3-phenyl-1-(thiazol-2-ylmethyl)urea], for which, in experiment [1], the MIC is greater than 64 µg/mL. The IC50 in the experiment with IL-6 and in the experiment with TNF-α was 28 µM throughout. Moreover, the “IL-1β OS of LPS” value in the experiment with IL-1β worked out at 16 µM.
Consider `CCCNC[C@]1(O)[C@H](C)O[C@@H](O[C@H]2[C@H](C)[C@@H](O[C@@H]3O[C@H](C)C[C@H](N(Cc4ccccc4)C(=O)N(C)c4ccccc4)[C@H]3O)[C@](C)(O)C[C@@H](C)CN[C@H](C)[C@@H](O)[C@](C)(O)[C@@H](CC)OC(=O)[C@@H]2C)C[C@@]1(C)OC` [Example H-65, 1-benzyl-1-((2S,3R,4S,6R)-2-(((2R,3S,4R,5R,8R,10R,11R,12S,13S,14R)-2-ethyl-3,4,10-trihydroxy-13-(((2R,4R,5S,6S)-5-hydroxy-4-methoxy-4,6-dimethyl-5-((propylamino)methyl)tetrahydro-2H-pyran-2-yl)oxy)-3,5,8,10,12,14-hexamethyl-15-oxo-1-oxa-6-azacyclopentadecan-11-yl)oxy)-3-hydroxy-6-methyltetrahydro-2H-pyran-4-yl)-3-methyl-3-phenylurea], for which, in experiment [1], the MIC was greater than 64 µg/mL. In addition, the IC50 in the experiment on IL-6 was found to be 6 µM; with TNF-α, 9 µM. The “IL-1β OS of LPS” value in the experiment on IL-1β stood at 2 µM.
For the compound `CCCNC[C@]1(O)[C@H](C)O[C@@H](O[C@H]2[C@H](C)[C@@H](O[C@@H]3O[C@H](C)C[C@H](N(C)C(=O)Nc4cccc(Cl)c4)[C@H]3O)[C@](C)(O)C[C@@H](C)CN[C@H](C)[C@@H](O)[C@](C)(O)[C@@H](CC)OC(=O)[C@@H]2C)C[C@@]1(C)OC` [Example H-88, 3-(3-chlorophenyl)-1-((2S,3R,4S,6R)-2-(((2R,3S,4R,5R,8R,10R,11R,12S,13S,14R)-2-ethyl-3,4,10-trihydroxy-13-(((2R,4R,5S,6S)-5-hydroxy-4-methoxy-4,6-dimethyl-5-((propylamino)methyl)tetrahydro-2H-pyran-2-yl)oxy)-3,5,8,10,12,14-hexamethyl-15-oxo-1-oxa-6-azacyclopentadecan-11-yl)oxy)-3-hydroxy-6-methyltetrahydro-2H-pyran-4-yl)-1-methylurea], the MIC in experiment [1] was greater than 64 µg/mL. Further, the IC50 stood at 92 µM in the experiment on IL-6 and 56 µM with TNF-α. The “IL-1β OS of LPS” value in the experiment on IL-1β came out at 13 µM.
For `CCCNC[C@]1(O)[C@H](C)O[C@@H](O[C@H]2[C@H](C)[C@@H](O[C@@H]3O[C@H](C)C[C@H](N(C)C(=O)N(C)c4ccccc4)[C@H]3O)[C@](C)(O)C[C@@H](C)CN(CCC)[C@H](C)[C@@H](O)[C@](C)(O)[C@@H](CC)OC(=O)[C@@H]2C)C[C@@]1(C)OC` [Example H-102, 1-((2S,3R,4S,6R)-2-(((2R,3S,4R,5R,8R,10R,11R,12S,13S,14R)-2-ethyl-3,4,10-trihydroxy-13-(((2R,4R,5S,6S)-5-hydroxy-4-methoxy-4,6-dimethyl-5-((propylamino)methyl)tetrahydro-2H-pyran-2-yl)oxy)-3,5,8,10,12,14-hexamethyl-15-oxo-6-propyl-1-oxa-6-azacyclopentadecan-11-yl)oxy)-3-hydroxy-6-methyltetrahydro-2H-pyran-4-yl)-1,3-dimethyl-3-phenylurea] the same measures were greater than 64 µg/mL, 11 µM, 8 µM and 8 µM.
Consider `CCCNC[C@]1(O)[C@H](C)O[C@@H](O[C@H]2[C@H](C)[C@@H](O[C@@H]3O[C@H](C)C[C@H](N(C)C(=O)N(C)c4ccc(C(F)(F)F)cc4)[C@H]3O)[C@](C)(O)C[C@@H](C)CN(CCC)[C@H](C)[C@@H](O)[C@](C)(O)[C@@H](CC)OC(=O)[C@@H]2C)C[C@@]1(C)OC` [Example H-103, 1-((2S,3R,4S,6R)-2-(((2R,3S,4R,5R,8R,10R,11R,12S,13S,14R)-2-ethyl-3,4,10-trihydroxy-13-(((2R,4R,5S,6S)-5-hydroxy-4-methoxy-4,6-dimethyl-5-((propylamino)methyl)tetrahydro-2H-pyran-2-yl)oxy)-3,5,8,10,12,14-hexamethyl-15-oxo-6-propyl-1-oxa-6-azacyclopentadecan-11-yl)oxy)-3-hydroxy-6-methyltetrahydro-2H-pyran-4-yl)-1,3-dimethyl-3-(4-(trifluoromethyl)phenyl)urea], for which the MIC in experiment [1] was greater than 64 µg/mL. Further, the concentration for half-maximal inhibition (IC50) with IL-6 amounted to 4 µM; in the experiment on TNF-α, 5 µM. The “IL-1β OS of LPS” value with IL-1β was 3 µM.
In the same order, the values of `CC[C@H]1OC(=O)[C@H](C)[C@@H](O[C@H]2C[C@@](C)(OC)[C@](O)(CN3CCOCC3)[C@H](C)O2)[C@H](C)[C@@H](O[C@@H]2O[C@H](C)C[C@H](N(C)C(=O)N(C)c3ccccc3)[C@H]2O)[C@](C)(O)C[C@@H](C)CN[C@H](C)[C@@H](O)[C@]1(C)O` [Example J-10, 1-((2S,3R,4S,6R)-2-(((2R,3S,4R,5R,8R,10R,11R,12S,13S,14R)-2-ethyl-3,4,10-trihydroxy-13-(((2R,4R,5S,6S)-5-hydroxy-4-methoxy-4,6-dimethyl-5-(morpholinomethyl)tetrahydro-2H-pyran-2-yl)oxy)-3,5,8,10,12,14-hexamethyl-15-oxo-1-oxa-6-azacyclopentadecan-11-yl)oxy)-3-hydroxy-6-methyltetrahydro-2H-pyran-4-yl)-1,3-dimethyl-3-phenylurea] are greater than 64 µg/mL, 45 µM, 20 µM and 40 µM.
For `CC[C@H]1OC(=O)[C@H](C)[C@@H](O[C@H]2C[C@@](C)(OC)[C@](O)(CN3CCCC3)[C@H](C)O2)[C@H](C)[C@@H](O[C@@H]2O[C@H](C)C[C@H](N(C)C(=O)N(C)c3ccccc3)[C@H]2O)[C@](C)(O)C[C@@H](C)CN[C@H](C)[C@@H](O)[C@]1(C)O` [Example J-12, 1-((2S,3R,4S,6R)-2-(((2R,3S,4R,5R,8R,10R,11R,12S,13S,14R)-2-ethyl-3,4,10-trihydroxy-13-(((2R,4R,5S,6S)-5-hydroxy-4-methoxy-4,6-dimethyl-5-(pyrrolidin-1-ylmethyl)tetrahydro-2H-pyran-2-yl)oxy)-3,5,8,10,12,14-hexamethyl-15-oxo-1-oxa-6-azacyclopentadecan-11-yl)oxy)-3-hydroxy-6-methyltetrahydro-2H-pyran-4-yl)-1,3-dimethyl-3-phenylurea], the MIC in experiment [1] is greater than 64 µg/mL. In addition, the IC50 in the experiment with IL-6 came to 126 µM; in the experiment with TNF-α it was 34 µM. For the same compound, the “IL-1β OS of LPS” value in the experiment with IL-1β came out at 22 µM.

For the origin of these results see patent publication US12295936B2, “Immunomodulating urea azalides” (Zoetis Services LLC, priority 2020, dated 2025).
